Twelve compounds from PubChem BioAssay AID1745844 (Carcinogenic Potency Database (CPDB), 2022) can be followed below.

Each structure is given as a SMILES string. Values joined by “and” are separate entries in the source; they are usually repeats but may differ in a detail not shown here. Identical values can stand only once. Active and inactive are the calls of the source. No rule for the calls is given here.

In this data set the test system is rodent lifetime carcinogenesis bioassay, tumor incidence TD50. The data set can be described thus: chronic cancer bioassays in animals – CPDB, compiled studies (AID 1745844).

One may read the TD50 as the 50% point of the dose-response relation for the toxic effect studied. For `O=NN1CCCC1c1ccc[n+]([O-])c1` (centres undefined), the TD50 by setting is: (hamster, strain Syrian Golden, females, in drinking water, site: liver, lesion: angiosarcoma, dosed 31 weeks, study length 96 weeks) 39 mg/kg/day (inactive); (rat, strain Fischer 344, females, in drinking water, site: esophagus, lesion: several types, types named in the paper, dosed 36 weeks, study length 104 weeks) 5.65 mg/kg/day; (rat, strain Fischer 344, females, in drinking water, site: nasal cavity, lesion: several types, types named in the paper, dosed 36 weeks, study length 104 weeks) 1.86 mg/kg/day; (rat, strain Fischer 344, males, in drinking water, site: esophagus, lesion: papilloma, dosed 36 weeks, study length 104 weeks) 2.64 mg/kg/day; (rat, strain Fischer 344, males, in drinking water, site: esophagus, lesion: several types, types named in the paper, dosed 36 weeks, study length 104 weeks) 1.63 mg/kg/day; (rat, strain Fischer 344, males, in drinking water, site: nasal cavity, lesion: malignant tumor, dosed 36 weeks, study length 104 weeks) 1.63 mg/kg/day. Besides, the TD50 was 2.64 mg/kg/day (rat, strain Fischer 344, males, in drinking water, site: nasal cavity, lesion: papilloma, dosed 36 weeks, study length 104 weeks) and 0.573 mg/kg/day (rat, strain Fischer 344, males, in drinking water, site: nasal cavity, lesion: several types, types named in the paper, dosed 36 weeks, study length 104 weeks).
Regarding `CC(=O)OC1CC(C)CCC1C(C)C` (centres undefined) (tested in a mixture with another compound), the TD50 (mouse, strain CFLP, males, by gavage, site: any site (literature study), lesion: malignant tumor, dosed 80 weeks, study length 104 weeks) amounted to 112 mg/kg/day.
For the compound `CC(=O)N[C@@H](CS)C(=O)O`, the carcinogen call (rat, strain Fischer 344, males, in feed, site: liver, lesion: several types, types named in the paper, dosed 98 weeks, study length 98 weeks) is “negative (inactive)”.
In the case of `ClC#CCl`, the TD50 is, setting by setting: (mouse, strain NMRI, females, inhaled, site: Harderian gland, lesion: cystadenoma, dosed 52 weeks, study length 98 weeks) 3.02 mg/kg/day; (mouse, strain NMRI, females, inhaled, site: Harderian gland, lesion: cystadenoma, dosed 78 weeks, study length 119 weeks) 0.55 mg/kg/day; (mouse, strain NMRI, females, inhaled, site: Harderian gland, lesion: cystadenoma, dosed 78 weeks, study length 129 weeks) 0.499 mg/kg/day; (mouse, strain NMRI, females, inhaled, site: kidney, lesion: cystadenoma, dosed 52 weeks, study length 98 weeks) 1.03 mg/kg/day; (mouse, strain NMRI, females, inhaled, site: kidney, lesion: cystadenoma, dosed 78 weeks, study length 119 weeks) 1.08 mg/kg/day; (mouse, strain NMRI, females, inhaled, site: kidney, lesion: cystadenoma, dosed 78 weeks, study length 129 weeks) 7.8 mg/kg/day. In addition, the TD50 is, setting by setting: (mouse, strain NMRI, females, inhaled, site: lung, lesion: adenoma, dosed 78 weeks, study length 119 weeks) 2.73 mg/kg/day; (mouse, strain NMRI, males, inhaled, site: Harderian gland, lesion: cystadenoma, dosed 78 weeks, study length 118 weeks) 0.687 mg/kg/day; (mouse, strain NMRI, males, inhaled, site: Harderian gland, lesion: cystadenoma, dosed 78 weeks, study length 127 weeks) 1.01 mg/kg/day; (mouse, strain NMRI, males, inhaled, site: kidney, lesion: cystadenocarcinoma, dosed 52 weeks, study length 92 weeks) 3.89 mg/kg/day; (mouse, strain NMRI, males, inhaled, site: kidney, lesion: cystadenocarcinoma, dosed 78 weeks, study length 118 weeks) 4.52 mg/kg/day; (mouse, strain NMRI, males, inhaled, site: kidney, lesion: cystadenocarcinoma, dosed 78 weeks, study length 127 weeks) 0.501 mg/kg/day. For the same compound, the TD50 reads like this: (mouse, strain NMRI, males, inhaled, site: kidney, lesion: cystadenoma, dosed 52 weeks, study length 92 weeks) 0.486 mg/kg/day; (mouse, strain NMRI, males, inhaled, site: kidney, lesion: cystadenoma, dosed 78 weeks, study length 118 weeks) 0.769 mg/kg/day; (mouse, strain NMRI, males, inhaled, site: kidney, lesion: cystadenoma, dosed 78 weeks, study length 127 weeks) 0.466 mg/kg/day; (rat, strain Wistar, females, inhaled, site: all sites, lesion: malignant lymphoma, dosed 78 weeks, study length 150 weeks) 3.86 mg/kg/day; (rat, strain Wistar, females, inhaled, site: kidney, lesion: cystadenoma, dosed 78 weeks, study length 150 weeks) 11.5 mg/kg/day; (rat, strain Wistar, females, inhaled, site: liver, lesion: cholangioma, dosed 78 weeks, study length 150 weeks) 3.86 mg/kg/day. The TD50 (rat, strain Wistar, females, inhaled, site: liver, lesion: hepatocellular adenoma, dosed 78 weeks, study length 150 weeks) is 17.5 mg/kg/day; the TD50 (rat, strain Wistar, males, inhaled, site: kidney, lesion: cystadenocarcinoma, dosed 78 weeks, study length 157 weeks) was 26.2 mg/kg/day; the TD50 (rat, strain Wistar, males, inhaled, site: kidney, lesion: cystadenoma, dosed 78 weeks, study length 157 weeks) is 3.34 mg/kg/day; the TD50 (rat, strain Wistar, males, inhaled, site: liver, lesion: cholangioma, dosed 78 weeks, study length 157 weeks) was 3.97 mg/kg/day; the TD50 (rat, strain Wistar, males, inhaled, site: liver, lesion: hepatocellular adenoma, dosed 78 weeks, study length 157 weeks) was 12.9 mg/kg/day. For the setting “mouse, strain NMRI, males, inhaled, site: Harderian gland, lesion: cystadenoma, dosed 52 weeks, study length 92 weeks”, the carcinogen call was “positive”.
Regarding `O=NN1CSCSC1`, the TD50 was 10.5 mg/kg/day (inactive) (rat, strain Fischer 344, females, by gavage, site: liver, lesion: hepatocellular carcinoma, dosed 47 weeks, study length 110 weeks) and 5.11 mg/kg/day (rat, strain Fischer 344, females, by gavage, site: nasal mucosa, lesion: carcinoma, dosed 47 weeks, study length 110 weeks).
For the compound `OCC(O)CO`, the TD50 (rat, strain Long-Evans, both sexes, in feed, site: any site (literature study), lesion: several types, types named in the paper, dosed 105 weeks, study length 105 weeks) was 38300 mg/kg/day (inactive) and 12300 mg/kg/day (inactive).
Consider `C[C@@H]1C\C=C/C=C/C=C/C=C/[C@H](O[C@@H]2O[C@H](C)[C@@H](O)[C@H](N)[C@@H]2O)C[C@@H]2O[C@](O)(C[C@@H](O)C[C@@H]3O[C@@H]3/C=C\C(=O)O1)C[C@H](O)[C@H]2C(=O)O`, for which the carcinogen call was “negative (inactive)” (rat, strain CFN, females, in feed, site: liver, lesion: malignant hepatoma, dosed 105 weeks, study length 105 weeks) and “negative (inactive)” (rat, strain CFN, males, in feed, site: thymus gland, lesion: thymoma, dosed 105 weeks, study length 105 weeks). Also, the TD50 (rat, strain CFN, males, in feed, site: lung, lesion: lymphosarcoma, dosed 105 weeks, study length 105 weeks) was 1970 mg/kg/day (inactive).
As to `CC1=C[C@H]2O[C@@H]3[C@H](O)C[C@](C)([C@@]2(CO)[C@H](O)C1=O)[C@]31CO1`, the carcinogen call (mouse, strain B6C3F1, males, in feed, site: liver, lesion: hepatocellular adenoma, dosed 104 weeks, study length 104 weeks) is “negative (inactive)” and the carcinogen call (mouse, strain B6C3F1, males, in feed, site: liver, lesion: hepatocellular carcinoma, dosed 104 weeks, study length 104 weeks) was “negative (inactive)”.
As to `Cc1c2ccccc2c(C)c2c1ccc1ccccc12`, the TD50 reads like this: (mouse, strain albino, females, in feed, site: forestomach, lesion: papilloma, dosed 60 weeks, study length 60 weeks) 0.287 mg/kg/day; (mouse, strain albino, females, in feed, site: mesenteric intestine, lesion: angio-endothelioma, malignant, dosed 60 weeks, study length 60 weeks) 0.084 mg/kg/day.
Take `Nc1ccc(Nc2ccccc2)cc1`: the carcinogen call (mouse, strain B6C3F1, females, in feed, site: any site (literature study), lesion: several types, types named in the paper, dosed 48 weeks, study length 91 weeks) was “negative (inactive)”; the carcinogen call (mouse, strain B6C3F1, males, in feed, site: any site (literature study), lesion: several types, types named in the paper, dosed 48 weeks, study length 91 weeks) was “negative (inactive)”; the carcinogen call (rat, strain Fischer 344, females, in feed, site: any site (literature study), lesion: several types, types named in the paper, dosed 78 weeks, study length 104 weeks) is “negative (inactive)”. Further, the TD50 (mouse, strain B6C3F1, males, in feed, site: liver, lesion: hepatocellular adenoma + hepatocellular carcinoma + neoplastic nodule, dosed 48 weeks, study length 91 weeks) was 213 mg/kg/day and the TD50 (rat, strain Fischer 344, males, in feed, site: any site (literature study), lesion: several types, types named in the paper, dosed 78 weeks, study length 104 weeks) was 161 mg/kg/day (inactive).
As for `COc1ccc([C@@H]2CC(=O)c3c(O)cc(O[C@@H]4O[C@H](CO[C@@H]5O[C@@H](C)[C@H](O)[C@@H](O)[C@H]5O)[C@@H](O)[C@H](O)[C@H]4O)cc3O2)cc1OC`, the carcinogen call is “negative (inactive)” (mouse, strain B6C3F1, females, in feed, site: liver, lesion: hemangioma, dosed 96 weeks, study length 104 weeks); “negative (inactive)” (mouse, strain B6C3F1, females, in feed, site: lung, lesion: adenoma, dosed 96 weeks, study length 104 weeks); “negative (inactive)” (mouse, strain B6C3F1, males, in feed, site: liver, lesion: hemangioma, dosed 96 weeks, study length 104 weeks); “negative (inactive)” (mouse, strain B6C3F1, males, in feed, site: lung, lesion: adenocarcinoma, dosed 96 weeks, study length 104 weeks); “negative (inactive)” (mouse, strain B6C3F1, males, in feed, site: lung, lesion: adenoma, dosed 96 weeks, study length 104 weeks). The TD50 by setting is: (mouse, strain B6C3F1, females, in feed, site: liver, lesion: hemangiosarcoma, dosed 96 weeks, study length 104 weeks) 887000 mg/kg/day (inactive); (mouse, strain B6C3F1, females, in feed, site: liver, lesion: hepatocellular carcinoma, dosed 96 weeks, study length 104 weeks) 194000 mg/kg/day (inactive); (mouse, strain B6C3F1, females, in feed, site: liver, lesion: hyperplastic nodule, dosed 96 weeks, study length 104 weeks) 379000 mg/kg/day (inactive); (mouse, strain B6C3F1, males, in feed, site: liver, lesion: hepatocellular carcinoma, dosed 96 weeks, study length 104 weeks) 146000 mg/kg/day (inactive); (mouse, strain B6C3F1, males, in feed, site: liver, lesion: hyperplastic nodule, dosed 96 weeks, study length 104 weeks) 416000 mg/kg/day (inactive).
On to `CN(CC(O)CO)N=O` (centres undefined), for which the TD50 was 0.509 mg/kg/day (hamster, strain Syrian Golden, females, by gavage, site: any site (literature study), lesion: several types, types named in the paper, dosed 41 weeks, study length 81 weeks); 12.7 mg/kg/day (inactive) (hamster, strain Syrian Golden, females, by gavage, site: liver, lesion: all vascular tumors, dosed 41 weeks, study length 81 weeks); 1.51 mg/kg/day (hamster, strain Syrian Golden, females, by gavage, site: nasal mucosa, lesion: carcinoma, dosed 41 weeks, study length 81 weeks); 0.94 mg/kg/day (hamster, strain Syrian Golden, females, by gavage, site: nasal mucosa, lesion: several types, types named in the paper, dosed 41 weeks, study length 81 weeks); 1.48 mg/kg/day (rat, strain Fischer 344, females, in drinking water, site: esophagus, lesion: several types, types named in the paper, dosed 40 weeks, study length 110 weeks); 3.13 mg/kg/day (rat, strain Fischer 344, females, in drinking water, site: liver, lesion: hepatocellular carcinoma, dosed 40 weeks, study length 110 weeks). In addition, the TD50 reads like this: (rat, strain Fischer 344, females, in drinking water, site: liver, lesion: neoplastic nodule, dosed 40 weeks, study length 110 weeks) 1.01 mg/kg/day; (rat, strain Fischer 344, females, in drinking water, site: liver, lesion: several types, types named in the paper, dosed 40 weeks, study length 110 weeks) 0.67 mg/kg/day; (rat, strain Fischer 344, females, in drinking water, site: lung, lesion: several types, types named in the paper, dosed 40 weeks, study length 110 weeks) 0.646 mg/kg/day; (rat, strain Fischer 344, females, in drinking water, site: nasal cavity, lesion: several types, types named in the paper, dosed 40 weeks, study length 110 weeks) 1.48 mg/kg/day.
